Activity calls are given as the source filed them. The calls are words filed in the database; no cut-off is given here.
Key:
[1] = molecular target: Protein cereblon/Bromodomain-containing protein 9 (Homo sapiens, UniProt Q9H8M2+Q96SW2); experiment: PROTAC activity at CRBN/BRD9 in human MV4-11 cells assessed as induction of BRD9 degradation at 0.33 nM by Western blot analysis relative to control; format: cell-based; conditions: time 0.5-24 hrs
MV4-11 = experiment: Induction of BRD7 degradation in human MV4-11 cells at 100 nM by Western blot analysis; format: cell-based
MOLM-13 = experiment: Antiproliferative activity against human MOLM-13 cells assessed as inhibition of cell growth incubated for 7 days by MTS reagent based assay; format: functional; conditions: MOLM-13, 168 h

Sequence of Protein cereblon/Bromodomain-containing protein 9 (Q96SW2 whole entry, looked up): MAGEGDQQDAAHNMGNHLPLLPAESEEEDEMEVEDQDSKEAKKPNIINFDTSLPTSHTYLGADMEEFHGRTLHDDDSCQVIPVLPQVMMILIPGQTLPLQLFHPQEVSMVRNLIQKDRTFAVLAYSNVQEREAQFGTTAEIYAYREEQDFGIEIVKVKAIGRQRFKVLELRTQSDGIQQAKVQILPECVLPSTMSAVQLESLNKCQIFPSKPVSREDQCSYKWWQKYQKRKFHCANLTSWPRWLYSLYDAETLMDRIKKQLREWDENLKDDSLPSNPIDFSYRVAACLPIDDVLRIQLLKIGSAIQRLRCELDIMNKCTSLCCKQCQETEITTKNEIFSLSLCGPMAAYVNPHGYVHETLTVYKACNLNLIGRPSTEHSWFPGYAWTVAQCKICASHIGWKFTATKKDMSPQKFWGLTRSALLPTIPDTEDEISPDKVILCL
Sequence of Protein cereblon/Bromodomain-containing protein 9 (Q9H8M2 whole entry, looked up): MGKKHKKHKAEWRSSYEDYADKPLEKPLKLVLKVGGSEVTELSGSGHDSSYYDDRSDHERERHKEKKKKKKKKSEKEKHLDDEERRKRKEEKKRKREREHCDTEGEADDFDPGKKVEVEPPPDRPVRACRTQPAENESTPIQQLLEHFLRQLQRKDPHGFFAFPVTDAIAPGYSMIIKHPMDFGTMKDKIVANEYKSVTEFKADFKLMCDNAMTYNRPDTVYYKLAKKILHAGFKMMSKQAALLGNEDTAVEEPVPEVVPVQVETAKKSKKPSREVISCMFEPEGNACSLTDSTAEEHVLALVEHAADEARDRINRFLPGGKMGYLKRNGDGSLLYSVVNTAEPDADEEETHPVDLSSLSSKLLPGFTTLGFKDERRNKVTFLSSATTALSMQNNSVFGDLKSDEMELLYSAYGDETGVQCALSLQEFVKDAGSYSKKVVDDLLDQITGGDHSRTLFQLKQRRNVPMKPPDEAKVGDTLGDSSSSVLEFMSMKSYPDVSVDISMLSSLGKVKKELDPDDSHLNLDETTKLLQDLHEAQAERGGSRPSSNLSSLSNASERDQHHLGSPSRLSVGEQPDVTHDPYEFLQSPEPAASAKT

## COc1cc(-c2cn(C)c(=O)c3ccccc23)cc(OC)c1CN1CCC(CN2CCC(c3ccc4c5c(cccc35)C(=O)N4C3CCC(=O)NC3=O)CC2)CC1 (stereo not drawn)
[1]
  Activity: Time-dependent-effect
MV4-11
  Activity: inactive
MOLM-13
  IC50: 0.37 nM

— ChEMBL document CHEMBL6096628, “Discovery of a Highly Potent and Selective BRD9 PROTAC Degrader Based on E3 Binder Investigation for the Treatment of Hematological Tumors” (J Med Chem, 2024)
